Marks after values point to notes of the source that are not given here.
Assays:
mold = test: Modified ASTM-G21 mold resistant test on fungicide-infused Kraft paper; format: cell-based; conditions: single active infused in Kraft paper; pass = mold resistant rating of 0 or 1; Trichoderma virens omitted from spore inocula
Experimental: In this example unbleached Kraft paper (brown wrapping paper (density 0.0091 g/cm2) is infused with DIMTS, carbendazim (BCM) and chlorothalonil (CTL) over a broad concentration range. In addition, paired combinations as well as all 3 actives combined are also infused into Kraft paper samples. Infusion of fungicide into paper is conducted by first dissolving the technical actives in a volatile solvent followed by addition of 1 mL of a working stock solution onto the surface of the paper to give the appropriate concentration of active(s) in mg/kg paper. The solvent completely saturates the paper. In order to prevent solvent from leaching through paper onto container, the paper is supported with a Viton O-ring. The solvent saturated paper samples are allowed to dry in a chemical fume hood precipitating the fungicides within the paper. Chemical analyses of fungicide actives in the paper samples confirms that this infusion technique produces >90% incorporation efficiency based on target concentrations. Standard mold resistant tests are performed on duplicate sub samples from each paper infusion sample. A modified ASTM-G21 is the standard mold resistant test used for performance evaluation. Synergy indices are calculated for all combinations of actives using a mold resistant rating of 0 or 1 as the passing criteria for performance. Synergy calculations are made according to the following standard equation:
SI=(Ca/CA)+(Cb/CB) 2 combination tests
SI=(Ca/CA)+(Cb/CB)+(Cc/CC) 3 combination tests
Ca is the lowest concentration of component A in combination with other active(s) required to pass test criteria;
CA is the lowest concentration of component A alone required to pass test criteria;
Cb is the lowest concentration of component B in combination with other active(s) required to pass test criteria;
CB is the lowest concentration of component B alone required to pass test criteria;
Cc is the lowest concentration of component C in combination with other active(s) required to pass test criteria; and
CC is the lowest concentration of component C alone required to pass test criteria. […]

[1] = cited from earlier work

Cc1ccc(S(=O)(=O)C(I)I)cc1 [DIMTS, diiodomethyltolylsulfone]
PPM (active), lowest concentration of component alone required to pass test criteria (mold): 4000 PPM
Water solubility [1]: water insoluble

COC(=O)Nc1nc2ccccc2[nH]1 [BCM, methyl 2-benzimidazolecarbamate]
PPM (active), lowest concentration of component alone required to pass test criteria (mold): 1200 PPM

N#Cc1c(Cl)c(Cl)c(Cl)c(C#N)c1Cl [CTL, 1,3-dicyano-tetrachlorobenzene]
PPM (active), lowest concentration of component alone required to pass test criteria (mold): > 1000* PPM
